Test results from ChEMBL document CHEMBL2440076, “New triarylpyrazoles as broad-spectrum anticancer agents: design, synthesis, and biological evaluation” (Eur J Med Chem, 2013).

What was measured:
T47D = experiment: Growth inhibition of human T47D cells assessed as cell growth at 10 uM after 48 hrs by sulforhodamine B assay; assay type: functional; details: read-out: Activity
[1] = Growth inhibition of human Hs 578T cells assessed as cell growth at 10 uM after 48 hrs by sulforhodamine B assay; assay type: functional; details: read-out: Activity
UO-31 [2] = experiment: Growth inhibition of human UO31 cells assessed as cell growth at 10 uM after 48 hrs by sulforhodamine B assay; assay type: functional; details: UO-31, 48 h, read-out: Activity
PC-3 = experiment: Growth inhibition of human PC3 cells assessed as cell growth at 10 uM after 48 hrs by sulforhodamine B assay; assay type: functional; details: PC-3, 48 h, read-out: Activity
HCT-15 = experiment: Growth inhibition of human HCT15 cells after 48 hrs by sulforhodamine B assay; assay type: functional; details: HCT-15, 48 h
NCI-H460 = experiment: Growth inhibition of human NCI-H460 cells after 48 hrs by sulforhodamine B assay; assay type: functional; details: NCI-H460, 48 h
NCI-H23 = experiment: Growth inhibition of human NCI-H23 cells after 48 hrs by sulforhodamine B assay; assay type: functional; details: NCI-H23, 48 h
HOP-62 [3] = experiment: Growth inhibition of human HOP62 cells after 48 hrs by sulforhodamine B assay; assay type: functional; details: HOP-62, 48 h
SR = experiment: Growth inhibition of human SR cells after 48 hrs by sulforhodamine B assay; assay type: functional
MOLT-4 = experiment: Growth inhibition of human MOLT4 cells after 48 hrs by sulforhodamine B assay; assay type: functional; details: MOLT-4, 48 h
CCRF-CEM = experiment: Growth inhibition of human CCRF-CEM cells after 48 hrs by sulforhodamine B assay; assay type: functional
SK-OV-3 = experiment: Growth inhibition of human SKOV3 cells assessed as cell growth at 10 uM after 48 hrs by sulforhodamine B assay; assay type: functional; details: SK-OV-3, 48 h, read-out: Activity
[4] = Growth inhibition of human NCI-ADR-RES cells assessed as cell growth at 10 uM after 48 hrs by sulforhodamine B assay; assay type: functional; details: read-out: Activity
OVCAR-5 [5] = experiment: Growth inhibition of human OVCAR5 cells assessed as cell growth at 10 uM after 48 hrs by sulforhodamine B assay; assay type: functional; details: OVCAR-5, 48 h, read-out: Activity
OVCAR-8 [6] = experiment: Growth inhibition of human OVCAR8 cells assessed as cell growth at 10 uM after 48 hrs by sulforhodamine B assay; assay type: functional; details: OVCAR-8, 48 h, read-out: Activity
OVCAR-3 = experiment: Growth inhibition of human OVCAR3 cells assessed as cell growth at 10 uM after 48 hrs by sulforhodamine B assay; assay type: functional; details: OVCAR-3, 48 h, read-out: Activity
U-251 [7] = experiment: Growth inhibition of human U251 cells assessed as cell growth at 10 uM after 48 hrs by sulforhodamine B assay; assay type: functional; details: U-251, 48 h, read-out: Activity
SF-268 [8] = experiment: Growth inhibition of human SF268 cells assessed as cell growth at 10 uM after 48 hrs by sulforhodamine B assay; assay type: functional; details: SF-268, 48 h, read-out: Activity
COLO 205 = experiment: Growth inhibition of human COLO205 cells assessed as cell growth at 10 uM after 48 hrs by sulforhodamine B assay; assay type: functional; details: COLO 205, 48 h, read-out: Activity
NCI-H522 = experiment: Growth inhibition of human NCI-H522 cells assessed as cell growth at 10 uM after 48 hrs by sulforhodamine B assay; assay type: functional; details: NCI-H522, 48 h, read-out: Activity
UO-31 [9] = experiment: Growth inhibition of human UO31 cells after 48 hrs by sulforhodamine B assay; assay type: functional; details: UO-31, 48 h
CAKI-1 = experiment: Growth inhibition of human CAKI-1 cells after 48 hrs by sulforhodamine B assay; assay type: functional; details: CAKI-1, 48 h
786-0 = experiment: Growth inhibition of human 786-0 cells after 48 hrs by sulforhodamine B assay; assay type: functional; details: 786-0, 48 h
OVCAR-8 [10] = experiment: Growth inhibition of human OVCAR8 cells after 48 hrs by sulforhodamine B assay; assay type: functional; details: OVCAR-8, 48 h
[11] = Growth inhibition of human NCI-ADR-RES cells after 48 hrs by sulforhodamine B assay; assay type: functional
OVCAR-5 [12] = experiment: Growth inhibition of human OVCAR5 cells after 48 hrs by sulforhodamine B assay; assay type: functional; details: OVCAR-5, 48 h
OVCAR-4 = experiment: Growth inhibition of human OVCAR4 cells after 48 hrs by sulforhodamine B assay; assay type: functional; details: OVCAR-4, 48 h
SK-MEL-5 = experiment: Growth inhibition of human SK-MEL-5 cells after 48 hrs by sulforhodamine B assay; assay type: functional; details: SK-MEL-5, 48 h
MDA-MB-435 = experiment: Growth inhibition of human MDA-MB-435 cells after 48 hrs by sulforhodamine B assay; assay type: functional, cell-based; details: MDA-MB-435, 48 h
M14 = experiment: Growth inhibition of human M14 cells after 48 hrs by sulforhodamine B assay; assay type: functional; details: M14, 48 h
Malme-3M = experiment: Growth inhibition of human MALME-3M cells after 48 hrs by sulforhodamine B assay; assay type: functional
U-251 [13] = experiment: Growth inhibition of human U251 cells after 48 hrs by sulforhodamine B assay; assay type: functional; details: U-251, 48 h
SF-268 [14] = experiment: Growth inhibition of human SF268 cells after 48 hrs by sulforhodamine B assay; assay type: functional; details: SF-268, 48 h
HOP-62 [15] = experiment: Growth inhibition of human HOP62 cells assessed as cell growth at 10 uM after 48 hrs by sulforhodamine B assay; assay type: functional; details: HOP-62, 48 h, read-out: Activity
HL-60(TB) = experiment: Growth inhibition of human HL-60(TB) cells assessed as cell growth at 10 uM after 48 hrs by sulforhodamine B assay; assay type: functional; details: HL-60, 48 h, read-out: Activity
[16] = read-out: LC50 (the source's name)

COc1cc(-c2nn(-c3cccc(NC(=O)c4ccccc4)c3)cc2-c2ccncc2)ccc1Cl
growth at 10 µM (T47D): 21.8%
growth at 10 µM [1]: -1.34%
growth at 10 µM (UO-31 [2]): 29.8%
growth at 10 µM (PC-3): 10.5%
GI50 (HCT-15): 0.654 µM
LC50 (HCT-15): > 100 µM
TGI (HCT-15): > 100 µM
GI50 (NCI-H460): 0.394 µM
LC50 (NCI-H460): > 100 µM
TGI (NCI-H460): > 100 µM
GI50 (NCI-H23): 2.02 µM
LC50 (NCI-H23): > 100 µM
TGI (NCI-H23): > 100 µM
GI50 (HOP-62 [3]): 8.34 µM
TGI (HOP-62 [3]): > 100 µM
CC50 (HOP-62 [3]; [16]): > 100 µM
GI50 (SR): 0.25 µM
TGI (SR): > 100 µM
CC50 (SR; [16]): > 100 µM
GI50 (MOLT-4): 0.701 µM
TGI (MOLT-4): > 100 µM
CC50 (MOLT-4; [16]): > 100 µM
GI50 (CCRF-CEM): 0.492 µM
LC50 (CCRF-CEM): > 100 µM
TGI (CCRF-CEM): > 100 µM
growth at 10 µM (SK-OV-3): 42.1%
growth at 10 µM [4]: 0.34%
growth at 10 µM (OVCAR-5 [5]): 66.4%
growth at 10 µM (OVCAR-8 [6]): 19.6%
growth at 10 µM (OVCAR-3): 0.02%
growth at 10 µM (U-251 [7]): 13.5%
growth at 10 µM (SF-268 [8]): 18.7%
growth at 10 µM (COLO 205): 2.21%
growth at 10 µM (NCI-H522): -29.6%
GI50 (UO-31 [9]): 0.638 µM
TGI (UO-31 [9]): > 100 µM
CC50 (UO-31 [9]; [16]): > 100 µM
GI50 (CAKI-1): 1.16 µM
TGI (CAKI-1): > 100 µM
CC50 (CAKI-1; [16]): > 100 µM
GI50 (786-0): 1.52 µM
TGI (786-0): > 100 µM
CC50 (786-0; [16]): > 100 µM
GI50 (OVCAR-8 [10]): 0.995 µM
TGI (OVCAR-8 [10]): > 100 µM
CC50 (OVCAR-8 [10]; [16]): > 100 µM
GI50 [11]: 0.448 µM
TGI [11]: > 100 µM
CC50 [11, 16]: > 100 µM
GI50 (OVCAR-5 [12]): 15 µM
LC50 (concentration killing 50% of cells) (OVCAR-5 [12]): > 100 µM
TGI (OVCAR-5 [12]): > 100 µM
GI50 (OVCAR-4): 1.17 µM
LC50 (concentration killing 50% of cells) (OVCAR-4): > 100 µM
TGI (OVCAR-4): > 100 µM
GI50 (SK-MEL-5): 0.319 µM
LC50 (concentration killing 50% of cells) (SK-MEL-5): 7.1 µM
TGI (SK-MEL-5): 1.38 µM
GI50 (MDA-MB-435): 0.189 µM
IC50 (MDA-MB-435): 0.19 µM
TGI (MDA-MB-435): 0.551 µM
CC50 (MDA-MB-435; [16]): 12.3 µM
GI50 (M14): 0.575 µM
LC50 (concentration killing 50% of cells) (M14): > 100 µM
TGI (M14): 12.9 µM
GI50 (Malme-3M): 0.537 µM
LC50 (concentration killing 50% of starting cells) (Malme-3M): > 100 µM
TGI (Malme-3M): > 100 µM
GI50 (U-251 [13]): 0.661 µM
LC50 (concentration killing 50% of cells) (U-251 [13]): > 100 µM
TGI (U-251 [13]): 30.8 µM
GI50 (SF-268 [14]): 0.859 µM
TGI (SF-268 [14]): > 100 µM
CC50 (SF-268 [14]; [16]): > 100 µM
growth at 10 µM (HOP-62 [15]): 27.1%
growth at 10 µM (HL-60(TB)): -18.8%
